These results are taken from publication PMC6274376, “Naturally Inspired Molecules as Multifunctional Agents for Alzheimer’s Disease Treatment” (Molecules, 2016).

Structures are written as SMILES. pIC50: −log10 of the molar value. Where “and” joins values, the source holds several entries; their conditions need not be identical. Equal values may be shown once. A value given as a limit tells only on which side of the number the result lay.

The subject of one data set is SH-SY5Y cells. As to the kind of experiment: Neurotoxicity, MTT cell viability assay. Type of data set: cell-based, human. To be noted: SH-SY5Y cells, MTT. How it is done: Cytotoxic effects in several in vitro or in vivo models have been reported for some chalcones. Therefore, to discriminate the neurotoxic concentrations of the conjugates 3–5 we evaluated the cell viability of human neuronal SH-SY5Y cells after 24 h treatment with these conjugate at different concentrations (1.25–40 μM) using the MTT assay. […] Thus, the presence of an α,β-unsatured carbonyl fragment seems to positively influence the degree of neuronal toxicity, leading to molecules endowed with a favorable SI.
Human neuronal (SH-SY5Y) cells were routinely grown in Dulbecco’s modified Eagle’ Medium (DMEM) supplemented with 10% fetal bovine serum, 2 mmol/L-glutamine, 50 U·mL^−1penicillin and 50 μg·mL^−1streptomycin at 37 °C in a humidified incubator with 5% CO2.
To evaluate the neurotoxicity of compounds, the SH-SY5Y cells were seeded in 96-well plates at 2 × 10^4 cells/well, incubated for 24 h and subsequently treated with various concentrations of compounds (1.25–40 µM) for 24 h at 37 °C in 5% CO2;. The cell viability in terms of mitochondrial metabolic function was evaluated by the reduction in 3-(4,5-dimethyl-2-thiazolyl)-2,5-diphenyl-2H-tetrazolium bromide (MTT) to formazan as previously described. The quantity of formazan was directly proportional to the number of viable cells. Briefly, the treatment medium was replaced with MTT (5 mg/mL) in phosphate-buffered saline (PBS) for 2 h at 37 °C in 5% CO2. After washing with PBS, the formazan crystals were dissolved with isopropanol. The amount of formazan was measured (570 nm, reference filter 690 nm) using a multilabel plate reader (VICTOR™ X3, PerkinElmer, Waltham, MA, USA). The neurotoxicity is expressed as concentration of compound resulting in 50% inhibition of cell viability.
Background: Tetrazolium assays rely on reduction of a dye to a coloured formazan, in cell work by metabolically active cells.

A short description of data set [1]: Cu(II) chelating assay (bathocuproinedisulfonic acid disodium salt, BCS). Type of data set: physicochemical. As to the method:
Data were expressed as chelating activity percentage (Table 2).
The Cu(II) chelating activity of the compounds was determined using the bathocuproinedisulfonic acid disodium salt (BCS) assay as previously described. Briefly, 50 μL of a 0.25 mM CuSO4 solution were mixed for 2 min with 50 μL of 5–20 µM compound solution in 100 µL of HEPES buffer (15 mM). Hydroxylamine (1 mM) was added after 2 min in order to reduce non-chelated cupric ions into cuprous ones. Finally, 50 μL of BCS (5 mM) or water (blank) was added and the absorbance at 490 nm was measured by spectrophotometry using a multilabel plate reader (VICTOR™ X3, PerkinElmer, Waltham, MA, USA) immediately and at 5 min. Na2EDTA (5–20 µM) was used as a positive control. The ability of the test compounds to chelate cupric ions was calculated using the following equation: chelating activity (%) = [1 − (Abs BCS + compound/Abs BCS) × 100].

As usually defined, the pIC50 is −log10 of the IC50, conventionally taken in molar units. `CN(Cc1ccccc1)Cc1ccc(C(=O)c2ccc(OCCOc3ccc(C(=O)/C=C/c4cccc5ccccc45)c(O)c3)cc2)cc1` [Compound 5, E-1-{4-[2-(4-4-Benzylmethylaminomethylbenzoylphenoxy)ethoxy]-2-hydroxyphenyl}-3-(naphthalen-1-yl)-prop-2-en-1-one] showed a negative-log IC50 (pIC50) in the data set on SH-SY5Y cells (Homo sapiens, 24 h treatment, 1.25–40 µM, mean ± SD) of under 4.40. Also, the neurotoxic effects entry in the data set with SH-SY5Y cells (24 h, 1.25–40 μM) is “not”. Further, the “Cu(II)-Chelating Activity” value in data set [1] (5 µM compound, fixed 40 µM CuSO4) was 9.48%; in data set [1] (10 µM compound, fixed 40 µM CuSO4) it was 13.78%; in data set [1] (20 µM compound, fixed 40 µM CuSO4, mean ± SD), 19.73% and 19.73 ± 0.30%.
